Measured values reported in US9096597B2 (priority 2007, dated 2015).
Counter-ions that a name gives are not always drawn. Like-named read-outs stand apart in the source and are kept apart here.

Tests used:
[1] = tested on: Machupo pseudotyped virus; test: organism not typed; assay type: cell-based; details: read-out: Activity (EC50 in μM vs. pseudotyped virus) Machupo
[2] = tested on: Lassa GP-pseudotyped-virus; test: microbe, parasite or virus in culture; assay type: cell-based, Lassa fever virus
VSVg pseudotyped virus = test: microbe, parasite or virus in culture; assay type: cell-based, vesicular stomatitis virus (VSV); details: Vesicular stomatitis virus, read-out: Activity (EC50 in μM vs. pseudotyped virus) VSVg
Sabiá pseudotyped virus = test: organism not typed; assay type: cell-based; details: read-out: Activity (EC50 in μM vs. pseudotyped virus) Sabiá
Junín pseudotyped virus = test: organism not typed; assay type: cell-based; details: read-out: Activity (EC50 in μM vs. pseudotyped virus) Junín
[3] = tested on: Guanarito pseudotyped virus; test: organism not typed; assay type: cell-based; details: read-out: Activity (EC50 in μM vs. pseudotyped virus) Guanarito
[4] = Human immunodeficiency virus 1, read-out: Activity (EC50 in μM vs. pseudotyped virus) Lassa

| SMILES | EC50 [1] [µM] | EC50 [2, 4] [µM] | EC50 (VSVg pseudotyped virus) [µM] | EC50 (Sabiá pseudotyped virus) [µM] | EC50 (Junín pseudotyped virus) [µM] | potency against viral entry mediated by the Lassa envelope glycoprotein [2] | EC50 ([2]; Human immunodeficiency virus 1, HEK-293T, read-out: EC50 against Lassa GP-pseudotyped-virus) [µM] | EC50 [3] [µM] |
| --- | --- | --- | --- | --- | --- | --- | --- | --- |
| CCOc1ccc(-n2cnc3cc(N(Cc4ccc(CC)cc4)S(=O)(=O)c4ccccc4)cnc32)cc1 [Compound 11, N-[3-(4-Ethoxy-phenyl)-3H-imidazo[4,5-b]pyridin-6-yl]-N-(4-ethyl-benzyl)-benzenesulfonamide] | 0.05 to 1 | 0.05 to 1 |  |  |  |  |  |  |
| CCOc1ccc(-n2cnc3nc(NCc4ccc(CC)cc4)ccc32)cc1 [Compound 4, [1-(4-Ethoxy-phenyl)-1H-imidazo[4,5-b]pyridin-5-yl]-(4-ethyl-benzyl)-amine] | 0.05 to 1 | < 0.05 | > 50 | 0.05 to 1 |  |  |  |  |
| CCOc1ccc(-n2cnc3cc(N(Cc4ccc(CC)cc4)C(=O)CCC(=O)O)cnc32)cc1 [Compound 9, N-[3-(4-Ethoxy-phenyl)-3H-imidazo[4,5-b]pyridin-6-yl]-N-(4-ethyl-benzyl)-succinamic acid] | 1 to 50 | 1 to 50 |  |  |  |  |  |  |
| CCOc1ccc(-n2cnc3cc(NCc4ccc(C)cn4)cnc32)cc1 [Compound 3, [3-(4-Ethoxy-phenyl)-3H-imidazo[4,5-b]pyridin-6-yl]-(5-methyl-pyridin-2-ylmethyl)-amine] |  | 0.05 to 1 | > 50 |  |  |  |  |  |
| CCOc1ccc(-n2cnc3cc(N(Cc4ccc(CC)cc4)C(=O)c4ccccc4)cnc32)cc1 [Compound 7, N-[3-(4-Ethoxy-phenyl)-3H-imidazo[4,5-b]pyridin-6-yl]-N-(4-ethyl-benzyl)-benzamide] | 0.05 to 1 | 0.05 to 1 |  |  |  |  |  |  |
| CCOc1ccc(-n2cnc3cc(NCc4ccc(CC)cc4)cnc32)cc1 [Compound 1, [3-(4-Ethoxy-phenyl)-3H-imidazo[4,5-b]pyridin-6-yl]-(4-ethyl-benzyl)-amine] | < 0.05 | < 0.05 | 1 to 50 | < 0.05 | < 0.05 | significantly increased potency | 0.00013 | < 0.05 |
| CCOc1ccc(-n2cnc3cc(NCc4ccc(CC)cc4)cnc32)cn1 [Compound 2, [3-(6-Ethoxy-pyridin-3-yl)-3H-imidazo[4,5-b]pyridin-6-yl]-(4-ethyl-benzyl)-amine] |  | < 0.05 | 1 to 50 |  |  |  |  |  |
| CCOc1ccc(-n2cnc3cc(N(Cc4ccc(CC)cc4)C(C)=O)cnc32)cc1 [Compound 6, N-[3-(4-Ethoxy-phenyl)-3H-imidazo[4,5-b]pyridin-6-yl]-N-(4-ethyl-benzyl)-acetamide] | 1 to 50 | 0.05 to 1 |  |  |  |  |  |  |
| CCOc1ccc(-n2cnc3cc(N(Cc4ccc(CC)cc4)S(C)(=O)=O)cnc32)cc1 [Compound 10, N-[3-(4-Ethoxy-phenyl)-3H-imidazo[4,5-b]pyridin-6-yl]-N-(4-ethyl-benzyl)-methanesulfonamide] | 1 to 50 | 1 to 50 |  |  |  |  |  |  |
| CCOc1ccc(-n2nnc3cc(NCc4ccc(CC)cc4)cnc32)cc1 [Compound 12, [3-(4-Ethoxy-phenyl)-3H-[1,2,3]triazolo[4,5-b]pyridin-6-yl]-(4-ethyl-benzyl)-amine] | 0.05 to 1 | < 0.05 | > 50 | 0.05 to 1 |  |  |  |  |
| CCOc1ccc(-n2cnc3cc(N(Cc4ccc(CC)cc4)C(=O)CN(C)C)cnc32)cc1 [Compound 8, 2-Dimethylamino-N-[3-(4-ethoxy-phenyl)-3H-imidazo[4,5-b]pyridin-6-yl]-N-(4-ethyl-benzyl)-acetamide hydrochloride] | 0.05 to 1 | 0.05 to 1 |  |  |  |  |  |  |
